Test results reported in patent US20250145564A1, “SULFONYLUREA COMPOUND, PREPARATION METHOD THEREFOR, AND APPLICATION THEREOF” (SHANGHAI INSTITUTE OF MATERIA MEDICA, CHINESE ACADEMY OF …, priority 2021, published 2025).

What was measured:
[1] = system: PE induced cardiomyocyte remodeling (AC16); test: Inhibitory effect on PE induced myocardial injury (BNP mRNA); type: cell-based, human; conditions: PE 100 μM, 24 hours; compounds 0.1, 0.5, 1 μM; glimepiride 10 μM
Description: (§1) Biomaterial sources: Human cardiomyocyte cell line AC16 was purchased from ATCC, USA. Phenylephrine (PE) was purchased from Sigma Company. AUDA was purchased from Cayman Company.
PE was dissolved in disinfected deionized water with a working concentration of 100 μM. The compounds were dissolved in DMSO, and the working concentrations were 0.1, 0.5, 1 μM for the compounds of the present invention, 10 μM for glimepiride, and 1 μM for AUDA. The incubation time was 24 hours.
(§2) Total RNA was extracted using Invitrogen's Trizol reagent, then cDNA was obtained using TAKARA's reverse transcription kit, and finally the mRNA content of related genes was amplified with specific primers.
(§3) After 24 hours of incubation, cardiomyocytes were collected to perform the above detection.

[2] = target: T1, sEH in cardiomyocytes (AC16) (Homo sapiens, UniProt P34913); test: Inhibition assay on sEH in cardiomyocytes (14,15-EET/DHET ELISA); type: cell-based; conditions: AC16, 0.1, 1 and 10 μM, 24 hours; effect increases as the concentration increases
T1 construct: endogenous in cells; host or cells: AC16 human cardiomyocyte cell line (ATCC)
T1 sequence (P34913 1-555): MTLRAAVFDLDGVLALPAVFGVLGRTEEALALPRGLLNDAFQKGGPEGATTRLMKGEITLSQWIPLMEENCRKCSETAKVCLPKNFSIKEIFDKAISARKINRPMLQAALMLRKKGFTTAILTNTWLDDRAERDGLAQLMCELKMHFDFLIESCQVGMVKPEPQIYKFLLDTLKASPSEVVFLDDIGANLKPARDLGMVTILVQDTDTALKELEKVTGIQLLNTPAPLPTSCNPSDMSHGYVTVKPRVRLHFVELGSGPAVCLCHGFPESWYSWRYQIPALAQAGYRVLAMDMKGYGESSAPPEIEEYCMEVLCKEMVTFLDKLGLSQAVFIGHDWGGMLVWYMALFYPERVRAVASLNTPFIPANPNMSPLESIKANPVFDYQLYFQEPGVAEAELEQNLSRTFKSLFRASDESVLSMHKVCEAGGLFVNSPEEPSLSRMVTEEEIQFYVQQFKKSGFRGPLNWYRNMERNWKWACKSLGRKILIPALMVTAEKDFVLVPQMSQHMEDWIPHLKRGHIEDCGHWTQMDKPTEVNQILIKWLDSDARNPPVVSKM
Description: as §1
The compounds were dissolved in DMSO. The working concentrations were 0.1, 1 and 10 μM for the compounds of the present invention, 0.1, 1 and 10 μM for glimepiride, and 1 μM for AUDA. The incubation time was 24 hours.
(§4) The ELISA detection kit (BIOTARGET 14,15-EET/DHET ELISA KIT) from Detroit R&D company was used, and the experiment was conducted according to the instructions of the kit.
as §3

[3] = system: mice with chronic heart failure (TAC); test: Anti-heart failure effect in vivo, TAC mouse model
From the text: (§5) 12-week-old male C57BL/6 mice, which were purchased from Gempharmatech Co., Ltd, were raised in the SPF animal house of Tongji Medical College, Huazhong University of Science and Technology. After one week of acclimatization in the animal house, the mice were subjected to thoracic aortic constriction as the TAC group. Another group of mice were subjected to thoracotomy without ligation of thoracic aorta as Sham group. Meanwhile, AUDA was used as the positive control.
Cardiac ultrasound detection was performed on a Visual Sonics Vevo 2100 small animal ultrasound imager. The major measurement indicators include heart rate (HR), left ventricular ejection fraction (LVEF), left ventricular fractional shortening (LVFS), left ventricular internal dimension-diastole (LVIDd) and left ventricular internal dimension-systole (LVIDs), and left ventricular posterior wall thickness (LVPWd and LVPWs).
The detection was performed on a Millar pressure-volume system from Millar Instr Ment PowerLab. After the animals were anesthetized to an appropriate extent, a midline incision was made in the neck, the right common carotid artery was separated, ligated at the distal end and clipped at the proximal end. A V-shaped incision was made on the artery with microscissors, and a microcatheter was inserted to the left ventricle. Signals were recorded through a conduction system to obtain hemodynamic data such as heart rate (HR), left ventricular end diastolic pressure (PED), left ventricular end systolic pressure (PES), maximum rate of decrease in left ventricular pressure (−dp/dtmin), and maximum rate of increase in left ventricular pressure (+dP/dtmax).
The myocardial tissue was placed in an embedding frame, soaked and fixed in neutral formaldehyde solution, dehydrated, and embedded in paraffin. The paraffin block was then sliced into sections with a thickness of 4 μm on a microtome. The general appearance of the myocardium was observed through HE staining, and the myocardial fibrosis was observed through Sirius red staining.
as §2
(§6) Cardiac ultrasound examination was performed two weeks after TAC surgery. 24 TAC mice with no significant difference in cardiac function were selected and randomly divided into a model group (TAC) and a treatment group (TAC+compound). The model group received no other treatment, while the treatment group received daily gavage (0.2 mg/kg and 0.4 mg/kg for I-1 and I-23 of the present application, and 1.2 mg/kg for glimepiride). Eight weeks later, i.e., at the chronic heart failure phase, the animals were sacrificed, and tissue specimens were collected to perform the above detections.

[4] = target: T2, sEH in the hearts of mice with chronic heart failure (Mus musculus, UniProt P34914); test: sEH enzymic activity in hearts of TAC mice; type: in vivo; conditions: daily gavage 1.2 mg/kg, eight weeks
T2 construct: from tissue; host or cells: heart tissue of male C57BL/6 mice after TAC surgery
T2 sequence (P34914 1-554): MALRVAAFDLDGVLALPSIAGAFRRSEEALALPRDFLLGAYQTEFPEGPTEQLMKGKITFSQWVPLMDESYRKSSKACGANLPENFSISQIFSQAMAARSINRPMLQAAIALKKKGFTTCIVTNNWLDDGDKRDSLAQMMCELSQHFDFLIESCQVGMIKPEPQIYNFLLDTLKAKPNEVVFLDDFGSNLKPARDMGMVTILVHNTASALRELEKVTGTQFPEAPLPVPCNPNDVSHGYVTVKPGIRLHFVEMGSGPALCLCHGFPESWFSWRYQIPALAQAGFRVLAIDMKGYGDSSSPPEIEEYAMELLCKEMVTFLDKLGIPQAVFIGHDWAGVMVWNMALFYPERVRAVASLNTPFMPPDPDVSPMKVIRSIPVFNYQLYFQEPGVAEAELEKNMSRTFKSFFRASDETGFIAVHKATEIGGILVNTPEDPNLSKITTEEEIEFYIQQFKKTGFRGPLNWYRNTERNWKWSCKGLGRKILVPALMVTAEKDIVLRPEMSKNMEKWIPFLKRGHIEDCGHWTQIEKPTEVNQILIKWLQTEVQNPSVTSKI
Description: as §4, §5, §6

[5] = daily gavage eight weeks, I-1, I-23 0.2 and 0.4 mg/kg, glimepiride 1.2 mg/kg

CCC1=C(C)CN(C(=O)NCCc2ccc(S(=O)(=O)NC(=O)N[C@H]3CC[C@H](C)CC3)cc2)C1=O [glimepiride, reference compound]
BNP expression induced by PE (cardiomyocyte remodeling) [1]: can inhibit this effect | inhibitory effect on enzymic activity of sEH in cardiomyocytes [2]: significant inhibitory effect | impaired cardiac function (EF value and dp/dt reduced by TAC) ([3]; daily gavage 1.2 mg/kg, eight weeks): can inhibit this effect | cross-sectional area of cardiomyocytes, HE staining (myocardial hypertrophy) [3, 5]: can inhibit this effect | positive area of Sirius red staining (myocardial fibrosis) [3, 5]: can inhibit this effect | increase of sEH enzymic activity in the hearts after TAC [4]: could inhibit this effect
